Results from patent US10064909B2, “Compositions and methods for chronic use of a weight-gaining compound” (priority 2015, dated 2018).

How the values were obtained:
[1] = Capromorelin efficacy in cats for 21 days: food consumption and bodyweight; assay type: in vivo; conditions: for mean food intake increase over baseline: Day 1 to Day 21 vs Days -3 to -1
Experimental: (§1) Thirty-two cats (16 neutered males, 16 females) were divided into 4 treatment groups including 4 animals of each sex per group. The cats were acclimated to the study environment for 10 days prior to study start. All cats were orally dosed with placebo (Group 1) or capromorelin (30 mg/ml oral solution, Formulation 9 as described above) at 1 mg/kg (Group 2), 2 mg/kg (Group 3) or 3 mg/kg (Group 4), for 21 days, with dosing starting on Day 1. Physical examinations were performed on Day −10 and general health observations made daily. Body weights were evaluated on Days −10, −8, −1, 1, 8, 15 and 22 days. Cats were fed about 1 hour after dosing. Commercial dry cat food (300 g) was provided for 5 hours and then removed and the amount of food consumed (g) calculated per cat. On Days 1, 14 and 21, blood samples were collected prior to daily dose administration and at 8 hours post-dose and serum processed for measurement of IGF-1 levels.
On Day 12, two study animals (one male each from Groups 1 and 4) were removed for reasons unrelated to the study and were not included in the data analysis. Cat 4M4 in the 3 mg/kg group lost significant weight during the first 8 days of treatment—then rebounded and began to gain the weight back. Statistical analysis for weight gain was completed with and without this cat's (4M4) data included.

IGF-1 [2] = assay: Capromorelin efficacy in cats for 21 days: serum IGF-1 levels; assay type: in vivo
Experimental: as §1

IGF-1 [3] = assay: Dose titration laboratory study (10 days): serum IGF-1; assay type: in vivo; conditions: cats
Experimental: This study defined a capromorelin oral solution dose regime that provides increased food intake and weight gain and the accompanying desired profile of IGF-1 serum levels. Laboratory adult cats were housed individually and divided into five groups (3/sex/group; n=6/group). Cats were dosed once daily for 10 consecutive days with either placebo, 1 mg/kg AT-002, 2 mg/kg AT-002, 3 mg/kg AT-002 or 4 mg/kg AT-002. The test article was a flavored solution formulation very similar to the final formulation. Study activities are summarized at Table 5.

IGF-1 [4] = assay: Pilot clinical field study: IGF-1 serum levels; assay type: in vivo, cats
Experimental: The key variable for the determination of effectiveness was bodyweight. Other effectiveness variables measured included body condition score, muscle condition score, quality of life assessments (unvalidated) and owner appetite assessments (unvalidated). Safety was assessed by physical examinations, clinical pathology testing (hematology and serum chemistry), urinalysis, serum IGF-1 levels and adverse event monitoring.

With `CN1N=C2CCN(C(=O)[C@@H](COCc3ccccc3)NC(=O)C(C)(C)N)C[C@@]2(Cc2ccccc2)C1=O.O=C(O)C(O)C(O)C(=O)O` [capromorelin, N-[(2R)-1-[(3aR)-2-methyl-3-oxo-3a-(phenylmethyl)-6,7-dihydro-4H-pyrazolo[4,3-c]pyridin-5-yl]-1-oxo-3-(phenylmethoxy)propan-2-yl]-2-amino-2-methylpropanamide L-tartrate] the “mean percent bodyweight change” value ([1]; 1 mg/kg (Group 2), Day 15) was 4.24%, the “mean percent bodyweight change” value ([1]; 1 mg/kg (Group 2), Day 22 (21-day exposure)) was 5.41% and the “mean food intake increase over baseline” value ([1]; 1 mg/kg oral (Group 2)) was 25.32%. The “mean percent bodyweight change” value ([1]; 2 mg/kg (Group 3), Day 8) was 3.23%, the “mean percent bodyweight change” value ([1]; 2 mg/kg (Group 3), Day 15) was 5.97% and the “mean percent bodyweight change” value ([1]; 2 mg/kg (Group 3), Day 22 (21-day exposure)) was 6.61%. The “mean food intake increase over baseline” value ([1]; 2 mg/kg oral (Group 3)) was 45.67%, the “mean food consumption change from baseline” value ([1]; 2 mg/kg, interval Day 8 through Day 14) was 54.42% and the “mean percent bodyweight change” value ([1]; 3 mg/kg (Group 4), 21-day exposure) was 3.92%. The “mean food intake increase over baseline” value ([1]; 3 mg/kg oral (Group 4)) was 29.59%, the “group mean serum IGF-1 increase from 0 to 8 hours post-dose” value (“group mean serum IGF-1 increase” below) (IGF-1 [2]; 1 mg/kg (Group 2), Day 1) was 46.69% and the “group mean serum IGF-1 increase” value (IGF-1 [2]; 1 mg/kg (Group 2), Day 14) was 17.27%. For the same compound, the “group mean serum IGF-1 increase” value (IGF-1 [2]; 1 mg/kg (Group 2), Day 21) was 9.81%, the “group mean serum IGF-1 increase” value (IGF-1 [2]; 2 mg/kg (Group 3), Day 1) was 29.38% and the “group mean serum IGF-1 increase” value (IGF-1 [2]; 2 mg/kg (Group 3), Day 14) was 9.00%. The “group mean serum IGF-1 increase” value (IGF-1 [2]; 2 mg/kg (Group 3), Day 21) was 2.68%, the “group mean serum IGF-1 increase” value (IGF-1 [2]; 3 mg/kg (Group 4), Day 1) was 36.77% and the “group mean serum IGF-1 increase” value (IGF-1 [2]; 3 mg/kg (Group 4), Day 14) was 18.56%. The “group mean serum IGF-1 increase” value (IGF-1 [2]; 3 mg/kg (Group 4), Day 21) was 5.17%, the “time of initial IGF-1 response (increase)” value (IGF-1 [3]; following treatment, Days 1 and 10) was “about 4 hours” and the “duration of elevated IGF-1 levels post-dose” value (IGF-1 [3]; once-a-day dosing) was 24 h. The “time to maximum relatively steady IGF-1 level” value (IGF-1 [3]; post-dose, Days 1 and 10) was at most 8 h, the “IGF-1 Serum Levels, Mean Levels (SEM)” value (IGF-1 [4]; 2 mg/kg once daily, Day 30) was 855.60 ± 72.74 ng/mL and the “IGF-1 Serum Levels, Change over baseline (Day 0)” value (“IGF-1 Serum Levels, Change” for short) (IGF-1 [4]; 2 mg/kg once daily, Day 30, L-tartrate) was 274.60 ± 49.06 ng/mL. The “IGF-1 Serum Levels, Change” value (IGF-1 [4]; 2 mg/kg once daily, Day 60) was 195.64 ± 40.70 ng/mL, the “IGF-1 Serum Levels, Mean Levels (SEM)” value (IGF-1 [4]; 2 mg/kg once daily, Day 60) was 752.55 ± 56.89 ng/mL and the “IGF-1 Serum Levels, Change” value (IGF-1 [4]; 2 mg/kg once daily, Day 90) was 163.82 ± 52.74 ng/mL. The “IGF-1 Serum Levels, Mean Levels (SEM)” value (IGF-1 [4]; 2 mg/kg once daily, Day 90) was 720.73 ± 65.70 ng/mL and the “IGF-1 Serum Levels, Mean Levels (SEM)” value (IGF-1 [4]; capromorelin group, Day 0 (baseline)) was 556.91 ± 64.30 ng/mL.
